The experiment has as its target BpIspF (Burkholderia pseudomallei, UniProt Q3JRA0). As to the kind of experiment: biochemical. The format is binding.

The text below walks through data of article PMC3874807 (Bioorganic & medicinal chemistry letters, 2013).

Chain of BpIspF (Q3JRA0 whole entry, looked up): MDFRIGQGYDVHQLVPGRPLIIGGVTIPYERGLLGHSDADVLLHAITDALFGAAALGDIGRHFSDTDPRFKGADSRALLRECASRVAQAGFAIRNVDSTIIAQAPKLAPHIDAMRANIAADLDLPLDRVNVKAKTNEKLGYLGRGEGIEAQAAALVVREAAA

Broadly, the Kd is the concentration at which binding is half-saturated. Lower therefore signals tighter binding. `Oc1ccc(-n2ccnc2)cc1` [FOL955] showed a Kd of more than 500 µM.
